Measured values reported in article PMC12490239, “Combining BET inhibition with SMAC mimetics restricts tumor growth and triggers immune surveillance in preclinical cancer models” (Cell Reports Medicine, 2025).

Tests used:
Experiment in all cases: cells
Design in all cases: CellTiter-Glo 2.0 luminescence proliferation/viability assay, single agents, human tumour cell line panel
[1] = test system: SNU1411; conditions: 96 h; single agent; read-out: IC50 SMACm
Experimental: (§1) The effect of BETi, SMACm alone or in combination cell viability was determined using a 96-h CellTiter-Glo2.0 proliferation assay. Cells were seeded in assay plates and placed at 37°C with 5% CO2 for twenty-four hours before treatment. Compounds were added in triplicate in gradients of increasing concentrations, in case of SMACm ranging between 4.5 nM and 10 μM and in case of BETi between 1.4 nM and 3 μM. DMSO served as control. Cell viability was measured by luminescence analysis using luminescence read on Envision plate readers (PerkinElmer). An additional set of colorectal cancer cell lines was assayed with technical duplicates and experimental triplicates. Cell viability was measured by luminescence analysis using luminescence read on Tecan Plate reader. The effects of drug combinations were analyzed using the Bliss Independence Model.[34] Synergy score was calculated by the average of 3 highest and 3 lowest BLISS Gaps between predicted and measured POC (Percentage of Control) values. To investigate the synergistic interaction between BI 894999 (hereafter, BETi) and BI 891065 (hereafter, SMACm), we evaluated the in vitro anti-tumor effect of the single agents or the combination in a large panel of 151 cancer cell lines of different tissue origin: CRC, gastric cancer, non-small cell lung cancer (NSCLC), and pancreatic carcinoma (Figures 1C–1F). As a mono-agent, SMACm was able to inhibit cell proliferation only in a limited number of tested cell lines (4%, Table S2). Most of the cell lines responded to inhibition by BETi, with sensitivity ranging from 10 to 100 nM (Figure 1C). Bliss Gap analysis, performed to analyze the effect of the BETi+SMACm combination on tumor cell growth (Figures 1D–1F), unveiled potent synergistic activity across the cell models tested (Figure 1E), independent of tumor type (Figure 1F).  Figure 1 The combinatorial effect of BI 894999 and BI 891065 across a panel of human tumor cell lines (A) Selectivity and potency profiles of BI 891065. Top left, structure of BI 891065. Top right, IC50 values for BI 891065 inhibition of cIAP1, cIAP2, and XIAP. Bottom, physicochemical properties of […]. (B) WES (Simple Western System) analysis of cIAP1, cIAP2, and XIAP levels upon treatment of HT-29 cells with indicated concentrations of BI 891065 for 6 h (C) IC50 values determined in cell proliferation assays (n = 151) individually for BETi BI 894999 and SMACm BI 891065. Each point represents a cell line tested. (D) Example of proliferation assay for synergy analysis in LoVo cell line; shown is combination plate map matrix and the cell growth inhibition (CGI) at the indicated concentrations; CGI values < 100%: tumor cell growth, CGI 100%: tumor cell stasis, and CGI > 100%: tumor cell killing. (E) Synergy scores across the tested panel of cell lines obtained using Bliss synergy analysis. (F) Violin plots showing the synergy scores for BETi and SMACm combination across indications. N is the number of cell lines tested in each indication group.

[2] = test system: HCC1438; conditions: 96 h; single agent; read-out: IC50 SMACm
Experimental: as §1

[3] = test system: PSN1; conditions: Homo sapiens, PSN1, 96 h; single agent; read-out: IC50 SMACm
Experimental: as §1

[4] = test system: Calu-1; conditions: Homo sapiens, Calu-1, 96 h; single agent; read-out: IC50 SMACm
Experimental: as §1

[5] = test system: NCI-H358; conditions: Homo sapiens, NCI-H358, 96 h; single agent; read-out: IC50 SMACm
Experimental: as §1

[6] = test system: NCI-H2030; conditions: Homo sapiens, NCI-H2030, 96 h; single agent; read-out: IC50 SMACm
Experimental: as §1

[7] = test system: RKO; conditions: Homo sapiens, RKO, 96 h; single agent; read-out: IC50 SMACm
Experimental: as §1

[8] = test system: NCI-SNU-1; conditions: 96 h; single agent; read-out: IC50 SMACm
Experimental: as §1

[9] = test system: HCA24; conditions: 96 h; single agent; read-out: IC50 SMACm
Experimental: as §1

[10] = test system: IM-95; conditions: Homo sapiens, IM95, 96 h; single agent; read-out: IC50 SMACm
Experimental: as §1

[11] = test system: KLM-1; conditions: KLM1, 96 h; single agent; read-out: IC50 SMACm
Experimental: as §1

[12] = test system: HCC-15; conditions: HCC15, 96 h; single agent; read-out: IC50 SMACm
Experimental: as §1

[13] = test system: ChaGo-K-1; conditions: Homo sapiens, ChaGo-K-1, 96 h; single agent; read-out: IC50 SMACm
Experimental: as §1

[14] = test system: COLO-741; conditions: Homo sapiens, COLO-741, 96 h; single agent; read-out: IC50 SMACm
Experimental: as §1

[15] = test system: SNU254; conditions: 96 h; single agent; read-out: IC50 SMACm
Experimental: as §1

IC50 [1]: 4.87 µM | IC50 [2]: 2.29 µM | IC50 [4]: 8.41 µM | IC50 [5]: > 10 µM | IC50 [6]: 4.29 µM | IC50 [8]: 6.16 µM | IC50 [12]: 4.6 µM | IC50 [14]: 0.831 µM | IC50 [15]: 1.76 µM
Structure (SMILES): CN[C@@H](C)C(=O)Nc1ccc(-c2c(-c3cccnc3OC)nc3cc(C)ccn23)c(C#Cc2ccc3c(C)nccc3c2)n1 [SMACm, BI 891065]
IC50 [3]: 7.21 µM | IC50 [7]: 5.07 µM | IC50 [9]: 1.73 µM | IC50 [10]: 1.24 µM | IC50 [11]: 3.93 µM | IC50 [13]: 5.42 µM
